Measured values as given in the NIST ThermoML archive (doi:10.1016/j.jct.2008.10.005).
± gives the expanded uncertainty stated by the source.

Tests used:
[1] = Crystal; DTA
[2] = Molar enthalpy of transition or fusion; conditions: Crystal; DSC

Compound | Normal melting temperature [1] [°C] | Molar enthalpy of transition or fusion [2] [kJ/mol]
Clc1ccccc1Cl [1,2-dichlorobenzene] | -17.30 ± 0.53 | 12.4 ± 0.85
Clc1cccc(Cl)c1 [1,3-dichlorobenzene] | -24.90 ± 0.53 | 12.6 ± 0.85
Clc1ccc(Cl)cc1 [1,4-dichlorobenzene] | 53.00 ± 0.53 | 18.2 ± 0.89
c1ccc2ccccc2c1 [naphthalene] | 80.10 ± 0.53 | 19 ± 0.9
